# Experimental data published in patent publication EP4692059A1, “CATIONIC LIPID HAVING DISULFIDE BOND” (Tohoku University, priority 2023, dated 2024).
# How the values were obtained:
# [1] = Measurement of Liposomal pKa (TNS fluorescence, LNP without nucleic acid); details: cationic lipid:DOPC:Chol = 52.5:7.5:40 (molar ratio) + DMG-PEG2k about 1.5 mol, pH at which the relative fluorescence intensity was 50%
# Method: Lipid nano particles (LNP) without containing nucleic acid were used for the evaluation of Liposomal pKa.
# To the obtained mixture was further added DMG-PEG2k (2 mM ethanol solution) in an amount of about 1.5 mol with respect to the total amount 100 mol of cationic lipid, DOPC, and Chol, and then ethanol was added to prepare an ethanol solution of the lipid (total amount: 360 µL).
# An acidic malic acid buffer (20 mM, pH 3.0) (1080 µL) containing NaCl at a final concentration of 30 mM and an ethanol solution (360 µL) of lipid were each weighed in a syringe. Using an ultra high-speed nanomedicament producing apparatus NanoAssmblr (manufactured by Precision NanoSystems), LNP was prepared under the conditions of addition rate of acidic buffer solution: 3 mL/min, addition rate of ethanol solution of lipid: 1 mL/min, and syringe holder temperature: 25°C, and collected in a 15 mL tube. […]
# 20 mM Citrate buffer, sodium phosphate buffer, and tris HCl buffer, each containing NaCl at a final concentration of 150 mM and adjusted to various pHs within the range of pH 3.0 to 10.0, were prepared. […] The relative fluorescence intensity was calculated as a percentage, with the maximum value of the fluorescence intensity in each LNP being 100% and the minimum value being 0%.
# HeLa cells = assay: In vitro gene expression in HeLa cells (luciferase mRNA-encapsulating LNP, cumulative luminescence in 24 hr)
# Method: LNP encapsulating mRNA that expresses luciferase (cationic lipid:DOPC:Chol:DMG-PEG2k = 50:10:40:1 (molar ratio)) was prepared by the method described in [Experimental Example 2], 1.
# HeLa cells, which are human cervical cancer cells, were seeded in a 3.5 cm dish at 5.0×10^4 cells/2 mL/Dish 24 hours before transfection. After 24 hr, the medium was changed to a culture medium (D-MEM) containing 0.1 mM D-luciferin. The prepared mRNA-encapsulating LNP was diluted with PBS to an mRNA concentration of about 1 µg/mL. The diluted mRNA-encapsulating LNP solution (about 200 µL, mRNA: 0.2 µg) was added to a 3.5 cm dish, and set in an incubator luminometer KronosDio. The luminescence intensity of luciferase was measured for 2 min every one hour. The cumulative luciferase luminescence intensity in 24 hr was calculated from the obtained time change of expression. […] In Comparative Example, the cationic lipid described in Table 2 was used.
# liver = assay: In vivo gene expression, luciferase luminescence in the liver after tail vein administration (Experimental Example 4); details: BALB/c mouse, mRNA 0.05 mg/kg; for amount of luminescence (photons/sec) in liver: tail vein, 4.5 hr after administration, LNP cationic lipid:DOPC:Chol:DMG-PEG2k = 52.5:7.5:40:1.5, prepared as in Experimental Example 2; for relative amount of luminescence: liver luminescence relative to cationic lipid of Comparative Example
# Method: LNP encapsulating mRNA that expresses luciferase (cationic lipid:DOPC:Chol:DMG-PEG2k = 52.5:7.5:40:1.5 (molar ratio)) was prepared by the method described in [Experimental Example 2], 1.
# The prepared each mRNA-encapsulating LNP dispersion was administered from the tail vein of BALB/c mouse (male, 5-week-old). The dose of mRNA was set to 0.05 mg per 1 kg body weight of the mouse, and the dose of the mRNA-encapsulating LNP dispersion was set to 10 µL per 1 g body weight of the mouse. After 4.5 hr from the administration of the mRNA-encapsulating LNP dispersion, a PBS solution of D-luciferin potassium was administered into the abdominal cavity of the mouse. The dose of D-luciferin potassium was set to 3 mg per mouse, and the dose of the PBS solution of D-luciferin potassium was set to 200 µL per mouse. After 15 min from the administration of the PBS solution of D-luciferin potassium, the mouse was euthanized, and the liver was isolated. The luminescence in the liver was quantified using an in vivo imaging system (IVIS) with an exposure of 10 sec. The amount of luminescence in the liver was quantified by image analysis using Live Imaging software attached to IVIS. The amount of luminescence (photons/sec) was calculated from the acquired image and used as an index of gene expression activity. The cationic lipids used, the luminescence intensity in the liver, and the relative luminescence intensity (= luminescence intensity in the liver when cationic lipid of Example was used/luminescence intensity in the liver when cationic lipid of Comparative Example was used) are shown in Table 7-1 to Table 7-3. "E+0a" (a: integer) indicated in Table 7-1 to Table 7-3 means "10^a". For example, "3.94E+09" means "3.94×10^9". […]
# [2] = Particle size, PdI and zeta potential of mRNA-encapsulating LNPs by dynamic light scattering (Experimental Example 2); assay type: physicochemical
# Method: An acidic buffer solution (total amount: 1080 µL) of nucleic acid was prepared by weighing 7.2 µg of mRNA solution (0.6 mg/mL) in a 5 mL tube and adding acidic malate buffer (20 mM, pH 3.0).
# An acidic buffer solution of nucleic acid and an ethanol solution of lipid were each weighed in a syringe.
# The particle size, PdI (Polydispersity Index), and zeta potential of the mRNA-encapsulating LNP prepared by the method of the above-mentioned 1 were measured by a dynamic light scattering method (Zetasizer Nano; Malvern).
# mouse red blood cells [3] = assay: Hemolysis activity (membrane fusion ability) at pH 7.4 and 5.5 (Experimental Example 5); assay type: cell-based, ICR mice
# Method: LNPs encapsulating mRNA that expresses luciferase (cationic lipid:DOPC:Chol:DMG-PEG2k=52.5:7.5:40:1.5 (molar ratio)) were prepared using the method described in [Experimental Example 2] 1. As cationic lipid, the cationic lipid of Comparative Example, compound 9, compound 14, compound 27, compound 33, or compound 42 was used.
# (§1) The collected blood was immediately mixed with 1.0 µL of heparin solution (5000 U/5 mL). About 9 mL of PBS was added to the blood to make the total volume 10 mL. The mixture was then mixed by inversion and centrifuged (4°C, 400 g, 10 min). The supernatant containing plasma components was removed using a Pasteur pipette. About 9 mL of PBS was added to the blood cell components to make the total volume 10 mL, and the mixture was centrifuged again. A similar washing procedure was repeated 4 times to obtain mouse red blood cells.
# 2, 4, 6, 8, and 10 µL of mouse red blood cells were weighed and diluted with PBS containing 1 w/v% Triton-X100. The entire diluted solution was transferred to a clear 96-well plate, and the absorbance at 545 nm was measured using a plate reader. A calibration curve was created using these samples, and the point where the absorbance reached 1 was determined as the amount of blood cells to be used in the hemolysis assay. Empty LNP solution was weighed into an Eppendorf tube and diluted with malic acid-PBS buffer (pH 5.5, pH 7.4), followed by addition of mouse red blood cells. The final lipid concentration was 100 µM at pH 7.4 and 33.3 µM at pH 5.5, and the final volume of the solution was 250 µL. Each tube was shaken at 1900 rpm for 15 min. Each sample was centrifuged under centrifugation conditions (4°C, 400 g, 5 min), and 100 µL of the supernatant was transferred to a clear 96-well plate and the absorbance at 545 nm was measured. Untreated red blood cells were used as the negative control. […] The hemolysis activity of each sample was calculated using the following formula: Hemolysis activity (%) = 100×(absorbance of each sample - absorbance of negative control)/(absorbance of positive control - absorbance of negative control).
# mouse red blood cells [4] = assay: Hemolysis activity (membrane fusion ability) at pH 7.4 and 5.5 (Experimental Example 8); assay type: cell-based, ICR mice
# Method: LNP encapsulating mRNA that expresses luciferase (cationic lipid:DOPC:Chol:DMG-PEG2k = 52.5:7.5:40:1.5 (molar ratio)) was prepared by the method described in […], 1. As cationic lipid, the cationic lipid of Comparative Example, compound 94, compound 112, compound 162, compound 181, or compound 194 was used.
# as §1
# 2, 4, 6, 8, and 10 µL of mouse red blood cells were weighed and diluted with PBS containing 1 w/v% Triton-X100. The entire diluted solution was transferred to a clear 96-well plate, and the absorbance at 545 nm was measured using a plate reader. A calibration curve was created using these samples, and the point where the absorbance reached 1 was determined as the amount of blood cells to be used in the hemolysis assay. Empty LNP solution was weighed into an Eppendorf tube and diluted with malic acid-PBS buffer (pH 5.5, pH 7.4), followed by addition of mouse red blood cells. The final lipid concentration was 100 µM at pH 7.4 and 33.3 µM at pH 5.5, and the final volume of the solution was 250 µL. Each tube was shaken at 1900 rpm for 15 min. Each sample was centrifuged under centrifugation conditions (4°C, 400 g, 5 min), and 100 µL of the supernatant was transferred to a clear 96-well plate and the absorbance at 545 nm was measured. Untreated red blood cells were used as the negative control. 1 w/v% Triton-X was used as the positive control. The hemolysis activity of each sample was calculated using the following formula: Hemolysis activity (%) = 100×(absorbance of each sample - absorbance of negative control)/(absorbance of positive control - absorbance of negative control).
# [5] = Particle size, PdI and zeta potential of mRNA-encapsulating LNPs by dynamic light scattering (Experimental Example 6); assay type: physicochemical; details: mRNA-encapsulating LNP
# Method: An acidic buffer solution (total amount: 1300 µL) of nucleic acid was prepared by weighing 6.5 µg of mRNA solution (0.6 mg/mL) in a 5 mL tube and adding acidic citrate buffer (20 mM, pH 5.0).
# An acidic buffer solution of nucleic acid and an ethanol solution of lipid were each weighed in a syringe. […] The obtained concentrate was diluted with TBS to a lipid concentration of 2 mM to give a dispersion containing LNP.
# The particle size, PdI (Polydispersity Index), and zeta potential of the mRNA-encapsulating LNP prepared by the method of the above-mentioned 1 were measured by a dynamic light scattering method (Zetasizer Nano; Malvern). […]
# [6] = mRNA-encapsulating LNP containing the cationic lipid, dispersion in PBS, dynamic light scattering (Table 5-3)
# [7] = cationic lipid:DOPC:Chol=49:7.5:42.5:1, dispersion in TBS, dynamic light scattering (Tables 8-1, 8-2)
Liposomal pKa [1],"PdI ([2]; mRNA-encapsulating LNP, cationic lipid:DOPC:Chol = 50:10:40 (molar ratio) + DMG-PEG2k about 1 mol, Polydispersity Index, dynamic light scattering)","zeta potential (mV) ([2]; mRNA-encapsulating LNP, cationic lipid:DOPC:Chol = 50:10:40 (molar ratio) + DMG-PEG2k about 1 mol, Zetasizer Nano)","particle size (nm) ([2]; mRNA-encapsulating LNP, cationic lipid:DOPC:Chol = 50:10:40 (molar ratio) + DMG-PEG2k about 1 mol, dynamic light scattering)","zeta potential (mV) ([2]; mRNA-encapsulating LNP containing the cationic lipid, dispersion in PBS (Table 5-3))","PdI [2, 6]","particle size (nm) [2, 6] [nm]","zeta potential (mV) ([5]; cationic lipid:DOPC:Chol=49:7.5:42.5:1, dispersion in TBS (Tables 8-1, 8-2))","PdI [5, 7]","particle size (nm) [5, 7] [nm]",SMILES,"cumulative luciferase luminescence intensity (RLU) in 24 hr (HeLa cells; LNP cationic lipid:DOPC:Chol:DMG-PEG2k = 50:10:40:1, mRNA 0.2 µg per dish, E+0a means 10^a) [RLU]",relative luminescence intensity (HeLa cells; cumulative intensity in 24 hr relative to cationic lipid of Comparative Example),amount of luminescence (photons/sec) in liver (liver) [photons/sec],relative amount of luminescence (liver),"hemolysis activity (mouse red blood cells [3]; pH of the endosomal environment (5.5), final lipid concentration 33.3 µM, Fig. 2, versus LNP of Comparative Example)","hemolysis activity (mouse red blood cells [3]; physiological pH (7.4), final lipid concentration 100 µM, Fig. 1)","hemolysis activity (mouse red blood cells [4]; pH of the endosomal environment (5.5), final lipid concentration 33.3 µM, Fig. 4, versus LNP of Comparative Example)","hemolysis activity (mouse red blood cells [4]; physiological pH (7.4), final lipid concentration 100 µM, Fig. 3)"
6.25,,,,,,,,,,CCCCCCCC/C=C\CCCCCCCC(=O)O[C@H](C/C=C\CCCCCCCC(=O)Oc1ccc(CC(=O)OCCC2CCN(CCSSCCN3CCC(CCOC(=O)Cc4ccc(OC(=O)CCCCCCC/C=C\C[C@H](CCCCCC)OC(=O)CCCCCCC/C=C\CCCCCCCC)cc4)CC3)CC2)cc1)CCCCCC [compound 4],,,,,,,,
,0.073,-2.80,92.18,,,,,,,CCCCCCCC/C=C\CCCCCCCC(=O)Oc1ccc(CC(=O)OCCC2CCN(CCSSCCN3CCC(CCOC(=O)Cc4ccc(OC(=O)CCCC(=O)OC[C@H](COC(=O)CCCCCC)OC(=O)CCCCCC)cc4)CC3)CC2)cc1 [compound 14],1.56E+08,8.44,6.12E+09,4.03,superior hemolysis activity compared to LNP containing the cationic lipid of Comparative Example,did not exhibit hemolysis activity,,
,,,,-2.40,0.048,88.0,-4.45,0.121,119.7,CCCCCCCC/C=C\CCCCCCCC(=O)Oc1ccc(CC(=O)OCCC2CCN(CCSSCCN3CCC(CCOC(=O)Cc4ccc(OC(=O)CCCCCCCC(OC(=O)CC)C(CCCCCCCC)OC(=O)CC)cc4)CC3)CC2)cc1 (centres unmarked) [compound 94],,,9.40E+09,6.18,,,superior hemolysis activity compared to the LNP containing the cationic lipid of Comparative Example,none
